Results on 30 compounds are retold here after patent US12435062B2, “Amide compounds and uses thereof” (HUTCHISON MEDIPHARMA LIMITED, priority 2020, dated 2025).

One test deals with Ba/F3^BCR-FMS-11 cells. Briefly: Cell proliferation experiment (Ba/F3^BCR-FMS-11, cckit-8). It is filed as cell-based, mouse. As to conditions: Mus musculus, Ba/F3^BCR-FMS-11 cell proliferation. The protocol:
Cell Proliferation Experiment
Ba/F3^BCR-FMS-11, mouse primary B lymphocytes stably expressing the BCR-FMS fusion gene. The cells were cultured in an RPMI 1640 medium containing 10% FBS.
(§1) 2. Reagents and instruments
• cckit-8 kit: Dojindo, 9 CK04; • Envision: Perkin Elmer; • Cell culture plate: Facol, 9353027. 3. Experimental steps
The BCR-FMS fusion gene was transfected into Ba/F3 cells, and the cell line Ba/F3^BCR-FMS-11 that stably expresses BCR-FMS and grows depending on CSF-1R was screened. Ba/F3^BCR-FMS-11 cell proliferation experiments is completed by using the Cell Counting kit cckit-8 in a 96-well plate. In a 96-well plate, 5000/well of Ba/F3^BCR-FMS-11 cells were inoculated at 100 μL/well. […] 10 μL of the compound dilutions with the above 8 concentrations were added to the culture cell wells. The culture was incubated in a 37° C. and 5% CO2 cell incubator for 72 hours. 10 μL of Cell Counting kit cckit-8 detection reagent was added to each well, and incubated at 37° C. and 5% CO2 in a cell incubator for another 1 h. The optical density absorption value at 450 nm of each well was detected by using Perkin Elmer Envision instrument.
wherein • Drug-treated well read-out: indicating the optical density signal of a cell well with the test compound treatment. • Cell well read-out: indicating the optical density signal of a cell well not treated with the test compound (only 0.5% DMSO). • Background read-out: indicating the optical density signal of a well with the cell medium. 5. Calculation of IC50: obtained by using XL-Fit 5.3 software. 6. Test results

Test [1] deals with Recombinant human CSF1R kinase (Homo sapiens (Human), UniProt P07333). The class given is biochemical. As to conditions: Z-LYTE Tyr 1 peptide substrate.
Protocol: Measurement of CSF1R Kinase Activity at Molecular Level
1. Reagents and materials:
• Z-LYTE™ Tyr 1 peptide substrate: Invitrogen, PV3190; • 5× kinase buffer: Invitrogen, PV3189; • 10 mM ATP: Invitrogen, PV3227; • Development reagent B: Invitrogen, PV3295; • Development buffer: Invitrogen, P3127; • Stopping solution: Invitrogen, P3094; • Recombinant human CSF1R kinase: Invitrogen, PR4598A; • 384 well plate, black: Corning, 3575; Envision: Perkin Elmer. 2. Preparation of reaction solutions
1) 1.33× kinase buffer: 5× kinase buffer was diluted to a 1.33× kinase buffer with ddH2O.
2) Dilution of a 4× test compound: The test compound was diluted in gradient to 4-fold the reaction concentration and the concentration of DMSO was kept at 8%. The final concentration of the compound in reaction was: 1, 0.33, 0.11, 0.037, 0.012, 0.004, 0.0014, 0.00046 μM, and the final concentration of DMSO was 2%.
3) A mixture of kinase/peptide substrate: In 1.33× kinase buffer, the kinase and Z-LYTE™ Tyr 1 peptide substrate were diluted to 0.12 μg/mL and 4 μM, respectively, to prepare a mixture of kinase/peptide substrate. The mixture was mixed gently with a pipette.
4) A phosphorylated peptide substrate solution (PP solution): 0.4 μL of Z-LYTE™ Tyr1 phosphorylated peptide substrate was added to 99.6 μL of 1.33× kinase buffer.
5) ATP solution: 10 mM of ATP was diluted to 760 μM with 1.33× kinase buffer to prepare ATP solution.
6) Development solution: Development reagent B was diluted with Development buffer at a ratio of 1:200.
1) Kinase reaction (10 μL system)
2.5 μL of 4× test compound was added to each reaction well of the 384 plate, and the corresponding volume of 8% DMSO was added to the control well. The plate was placed on ice. 5 μL of a mixture of kinase/peptide substrate, 2.5 μL of kinase buffer and ATP solution were successively added to each well. Three control groups were set up: Group C1 contains only kinase buffer, group C2 contains the mixture of kinase/peptide substrate, kinase buffer and ATP, and group C3 contains 5 μL of PP solution. After adding the reaction components, the 384-well plate was sealed and incubated at 25-30° C. for 1 h in dark.
5 μL of Development solution was added to each well, sealed and incubated at 25-30° C. for another 1 h in dark.
3) Reaction stopping and plate reading
5 μL of stopping solution was added to each well. The Coumarin value (excitation at 400 nm, emission at 445 nm) and Fluorescein value (excitation at 400 nm, emission at 520 nm) were measured, respectively.
ER (emission ratio): Coumarin emission read-out (445 nm)/Fluorescein emission read-out (520 nm); • C3 445 nm: 100% phosphorylated Coumarin emission read-out; • C3 520 nm: 100% phosphorylated Fluorescein emission read-out; • C1 445 nm: 0% phosphorylated Coumarin emission read-out; • C1 520 nm: 0% phosphorylated Fluorescein emission read-out. Inhibition rate % (IR)=[1−% phosphorylation ratetest sample/100% phosphorylation ratecontrol]×100%
% phosphorylation ratetest sample: phosphorylation rate of the test compound; • 100% phosphorylation ratecontrol: phosphorylation rate of C3 control group.
5. IC50 values: calculated by using software XL-Fit™ (version 5.3) supplied by ID Business Solutions (Guildford, UK), which is an additional software to Microsoft Excel.
Test [2] has as its target CSF1R phosphorylation in THP-1 cells (Homo sapiens (Human), UniProt P07333). Put plainly: Detection of CSF1R phosphorylation activity at cell level (THP-1, M-CSF stimulated, ELISA). The class given is cell-based. The note with it: p-CSF1R ELISA, compound 60 min, 300 ng/mL M-CSF 1 min. The protocol: Detection of CSF1R Phosphorylation Activity at Cell Level
THP-1 (ATCC), human acute monocytic leukemia cells. The cells were cultured in an RPMI 1640 medium containing 10% FBS.
as §1
• Human phosphorylation-CSF1R ELISA kit: R&D, #DYC3268-2; • RPMI 1640 culture solution: GIBCO, 910491; • Human M-CSF recombinant cytokine: R&D, 9216-MC-500; • Cell lysis buffer: Cell Signal, 99803S; • 1×PBS buffer (1 L): 8.0 g of NaCl, 0.2 g of KCl, 3.58 g of Na2HPO4-12H2O, 0.24 g of KH2PO4 were dissolved in 1 L of dd H2O, and the pH was adjusted to 7.4; • Blocking solution: PBS buffer containing 1% BSA; • PBST washing liquid: PBS buffer containing 0.05% Tween-20; • Chromogenic substrate: R&D, #DY999; • 2N H2SO4; • Microwell plate reader: Labsystems Multiskan K3: Thermo; Envision: Perkin Elmer; • ELISA plate: Corning, #9018; • Cell culture plate: Facol, #353027. 3. Treatment of cells and preparation of lysis buffer
THP-1 cells were resuspended in RPMI-1640 culture solution containing 2% FBS, and the culture was added to a 96-well plate at a density of 5×10^4/well, 50 μL/well, and cultured in a cell incubator at 5% CO2 and 37° C. overnight; The test compound was diluted with a serum-free RPMI-1640 medium to 3, 1.1, 0.37, 0.12, 0.04, 0.014, 0.005 and 0.002 μM, and the concentration of DMSO was 5%. 5 μL of the diluted compound was added to the 50 μL cell culture system, the culture was cultured in a 5% CO2, 37° C. cell incubator for 60 min, 300 ng/mL of M-CSF was added to the cells, and the mixture was stimulated in the 37° C. cell incubator for 1 min, added 50 μL of cell lysis buffer, and stored in a refrigerator at −80° C.
100 μL/well of the p-CSF1R capture antibody diluted to 0.8 μg/mL with PBS was added to the ELISA plate, and the plate was coated on a shaker at room temperature overnight. The culture was washed with PBST, and then added blocking solution and incubated at room temperature for 2 h. The culture was washed with PBST, added 90 μL of cell lysis buffer, and incubated on a shaker at 25° C. for 2 h. The plate was washed with PBST three times, added 100 μL of anti-p-tyrosine-HRP detection antibody diluted with 0.1% PBS-BSA diluent, and incubated on a shaker at 25° C. for 2 h. The plate was washed with PBST washing liquid, added 100 μL of chromogenic substrate and incubated at room temperature for 10-20 min. The reaction was stopped by adding 50 μL of 2N H2SO4. The optical density signal (450/570 nm) of each well was detected in Labsystems Multiskan K3 or Envision.
wherein • Drug-treated well read-out: indicating the optical density signal of a cell well with the test compound treatment. • Background read-out: indicating the optical density signal of a well without cells but with cell lysis buffer. • Cell well read-out: indicating the optical density signal of a cell well not treated with the compound. 6. Calculation of IC50: obtained by using XL-Fit 5.3 software. 7. Test results

Chain of CSF1R phosphorylation in THP-1 cells (P07333 20-972): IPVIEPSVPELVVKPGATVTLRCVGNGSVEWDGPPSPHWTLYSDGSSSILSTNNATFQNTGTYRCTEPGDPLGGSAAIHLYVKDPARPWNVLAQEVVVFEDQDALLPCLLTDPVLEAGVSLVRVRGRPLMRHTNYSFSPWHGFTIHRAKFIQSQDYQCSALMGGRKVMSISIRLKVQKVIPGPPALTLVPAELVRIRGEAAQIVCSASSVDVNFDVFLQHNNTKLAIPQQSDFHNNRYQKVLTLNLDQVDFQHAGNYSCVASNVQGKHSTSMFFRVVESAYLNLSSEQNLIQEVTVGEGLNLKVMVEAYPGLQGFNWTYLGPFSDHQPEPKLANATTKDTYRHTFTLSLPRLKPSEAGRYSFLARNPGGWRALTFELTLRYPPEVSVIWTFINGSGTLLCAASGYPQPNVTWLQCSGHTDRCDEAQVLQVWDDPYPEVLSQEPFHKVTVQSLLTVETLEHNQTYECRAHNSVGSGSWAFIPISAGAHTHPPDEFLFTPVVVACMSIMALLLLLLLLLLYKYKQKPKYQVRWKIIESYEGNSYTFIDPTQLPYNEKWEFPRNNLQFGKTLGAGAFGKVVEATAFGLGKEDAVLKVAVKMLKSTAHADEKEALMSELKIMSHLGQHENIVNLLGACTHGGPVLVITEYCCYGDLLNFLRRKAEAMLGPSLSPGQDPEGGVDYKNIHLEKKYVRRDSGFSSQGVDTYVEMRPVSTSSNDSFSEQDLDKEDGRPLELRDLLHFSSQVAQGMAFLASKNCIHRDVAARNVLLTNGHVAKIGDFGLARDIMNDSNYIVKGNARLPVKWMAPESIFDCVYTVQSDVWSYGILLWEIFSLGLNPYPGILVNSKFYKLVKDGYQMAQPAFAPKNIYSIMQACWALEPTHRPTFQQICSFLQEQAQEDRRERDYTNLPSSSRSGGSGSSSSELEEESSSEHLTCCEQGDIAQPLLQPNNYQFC
Chain of Recombinant human CSF1R kinase (P07333 20-972): as above

The IC50 is the concentration needed to halve the response being measured. On to `Cc1cc(Nc2cc(Oc3ccc(NC(=O)c4cccn(C)c4=O)nc3)ccn2)n[nH]1` [Compound 112], for which the IC50 turned out to be 0.022 µM in the test with Ba/F3^BCR-FMS-11 cells (72 h), 0.019 µM in test [1] and 0.01 µM in test [2]. The matching figures for `CC(C)n1cccc(C(=O)Nc2ccc(Oc3ccnc(-c4cnn(C)c4)c3)cc2F)c1=O` [Compound 20]: 0.044 µM, 0.008 µM and 0.109 µM.

For `Cc1ccc(-c2cc(Oc3ccc(NC(=O)c4cccn(C)c4=O)nc3)ccn2)cn1` [Compound 115], the IC50 in the test on Ba/F3^BCR-FMS-11 cells (72 h) turned out to be 0.038 µM; in test [1] it was 0.046 µM; in test [2] it was 0.022 µM.

With `Cc1ccc(-c2cc(Oc3ccc(NC(=O)c4cnc(C)n(C)c4=O)nc3)ccn2)o1` [Compound 122], in test [1], the IC50 was found to be 0.055 µM. The compound `Cn1cc(-c2cc(Oc3ccc(NC(=O)c4cccn(CC(F)(F)F)c4=O)nc3)ccn2)cn1` [Compound 87] had an IC50 with Ba/F3^BCR-FMS-11 cells (72 h) of 0.006 µM. Regarding `Cc1ncc(C(=O)Nc2ccc(Oc3ccnc(-c4ccn5ccnc5c4)c3)cn2)c(=O)n1C` [Compound 66], the IC50 in the test on Ba/F3^BCR-FMS-11 cells (72 h) came out at 0.055 µM; in test [1], 0.054 µM; in test [2], 0.023 µM. The matching figures for `Cc1ncc(C(=O)Nc2ccc(Oc3ccnc(-c4ccncc4)c3)cn2)c(=O)n1C` [Compound 41]: 0.052 µM, 0.027 µM and 0.019 µM. Regarding `CCn1cccc(C(=O)Nc2ccc(Oc3ccnc(-c4cnn(C)c4)c3)cn2)c1=O` [Compound 55], the IC50 in the test with Ba/F3^BCR-FMS-11 cells (72 h) was determined as 0.005 µM; in test [1], 0.003 µM; in test [2] it was 0.007 µM. In the case of `Cc1ncc(C(=O)Nc2ccc(Oc3ccnc(-c4nccs4)c3)cn2)c(=O)n1C` [Compound 119], the IC50 in test [1] turned out to be 0.467 µM. Turning to `Cc1ncc(C(=O)Nc2ccc(Oc3ccnc(C4=CCCCC4)c3)cn2)c(=O)n1C` [Compound 121], the IC50 in test [1] was found to be 0.413 µM. Still for that read-out and setting: to `CCN1CCN(c2cc(Oc3ccc(NC(=O)c4cccn(C(C)C)c4=O)nc3)ccn2)CC1` [Compound 98, N-(5-((2-(4-ethylpiperazin-1-yl)pyridin-4-yl)oxy)pyridin-2-yl)-1-isopropyl-2-oxo-1,2-dihydropyridine-3-carboxamide] belongs 0.484 µM; to `CC(C)n1ccnc(C(=O)Nc2ccc(Oc3ccnc(-c4cnn(C)c4)c3)cn2)c1=O` [Compound 59], 0.121 µM. For the compound `Cn1cc(-c2cc(Oc3ccc(NC(=O)c4cnc5ccccn5c4=O)nc3)ccn2)cn1` [Compound 26], the midpoint of inhibition with Ba/F3^BCR-FMS-11 cells (72 h), the IC50, lay at 0.01 µM. In the case of `Cc1cc(Nc2cc(Oc3ccc(NC(=O)c4cnc(C)n(C)c4=O)nc3)ccn2)ccn1` [Compound 35], the half-inhibitory concentration (IC50) in test [1] turned out to be 0.113 µM. Turning to `COc1cc(Oc2ccnc(-c3cnn(C)c3)c2)ccc1NC(=O)c1cnc(C)n(C)c1=O` [Compound 53], the half-inhibitory concentration (IC50) in test [1] was 0.135 µM.

On to `Cc1ncc(C(=O)Nc2ccc(Oc3ccnc(-c4cncn4C)c3)cn2)c(=O)n1C` [Compound 31], for which the IC50 in test [1] was found to be 0.689 µM. Regarding `Cn1cccc(C(=O)Nc2ccc(Oc3ccnc(-n4cccn4)c3)cn2)c1=O` [Compound 37], the IC50 in test [1] is 0.169 µM.

With `CN(C)c1ccc(C(=O)Nc2ccc(Oc3ccnc(-c4cnn(C)c4)c3)cn2)c(=O)n1C` [Compound 2, 6-(dimethylamino)-1-methyl-N-(5-((2-(1-methyl-1H-pyrazol-4-yl)pyridin-4-yl)oxy)pyridin-2-yl)-2-oxo-1,2-dihydropyridine-3-carboxamide], the concentration for half-maximal inhibition (IC50) with Ba/F3^BCR-FMS-11 cells (72 hours) stood at 0.011 µM. Regarding `CC(C)n1c(N(C)C)ccc(C(=O)Nc2ccc(Oc3ccnc(-c4cnn(C)c4)c3)cn2)c1=O` [Compound 1, 6-(dimethylamino)-1-isopropyl-N-(5-((2-(1-methyl-1H-pyrazol-4-yl)pyridin-4-yl)oxy)pyridin-2-yl)-2-oxo-1,2-dihydropyridine-3-carboxamide], the IC50 in test [1] turned out to be 0.217 µM. On to `Cn1cccc(C(=O)Nc2ccc(Oc3ccnc(-c4cnn(CCO)c4)c3)cn2)c1=O` [Compound 94, N-(5-((2-(1-(2-hydroxyethyl)-1H-pyrazol-4-yl)pyridin-4-yl)oxy)pyridin-2-yl)-1-methyl-2-oxo-1,2-dihydropyridine-3-carboxamide], for which the IC50 with Ba/F3^BCR-FMS-11 cells (72 h) was found to be 0.142 µM. `Cc1cc(Oc2ccnc(-c3cnn(C)c3)c2)ccc1NC(=O)c1cccn(C(C)C)c1=O` [Compound 19]: in test [1], the IC50 came out at 0.274 µM. The same measure, in the same setting: to `CNCCn1cc(-c2cc(Oc3ccc(NC(=O)c4cnc(C)n(C)c4=O)nc3)ccn2)cn1` [Compound 110] belongs 0.111 µM. As for `Cc1ncc(C(=O)Nc2ccc(Oc3ccnc(-c4cn(C)nc4O)c3)cn2)c(=O)n1C` [Compound 135, N-(5-((2-(3-hydroxy-1-methyl-1H-pyrazol-4-yl)pyridin-4-yl)oxy)pyridin-2-yl)-1,2-dimethyl-6-oxo-1,6-dihydropyrimidine-5-carboxamide], the IC50 in the test on Ba/F3^BCR-FMS-11 cells (72 h) came to 0.007 µM; in test [1], 0.012 µM. On to `Cn1cc(-c2cc(Oc3ccc(NC(=O)c4cnc(O)n(C)c4=O)nc3)ccn2)cn1` [Compound 134, 2-hydroxy-1-methyl-N-(5-((2-(1-methyl-1H-pyrazol-4-yl)pyridin-4-yl)oxy)pyridin-2-yl)-6-oxo-1,6-dihydropyrimidine-5-carboxamide], for which, in the test with Ba/F3^BCR-FMS-11 cells (72 h), the IC50 was determined as 0.526 µM. Same read-out and setting: the figure for `COc1cc(Oc2ccnc(-c3cnn(C)c3)c2)cnc1NC(=O)c1cccn(C(C)C)c1=O` [Compound 92, 1-isopropyl-N-(3-methoxy-5-((2-(1-methyl-1H-pyrazol-4-yl)pyridin-4-yl)oxy)pyridin-2-yl)-2-oxo-1,2-dihydropyridine-3-carboxamide] is 0.567 µM; for `Cn1cc(-c2cc(Oc3ccc(NC(=O)c4cnc(C5CC5)n(C)c4=O)nc3)ccn2)cn1` [Compound 74] it is 0.012 µM.

`Cn1cccc(C(=O)Nc2ccc(Oc3ccnc(-n4cncn4)c3)cn2)c1=O` [Compound 29]: the IC50 in test [1] was determined as 0.173 µM. Still for that read-out and setting: to `Cc1ncc(C(=O)Nc2ccc(Oc3ccnc(-c4cnn(CCN)c4)c3)cn2)c(=O)n1C` [Compound 109, N-(5-((2-(1-(2-aminoethyl)-1H-pyrazol-4-yl)pyridin-4-yl)oxy)pyridin-2-yl)-1,2-dimethyl-6-oxo-1,6-dihydropyrimidine-5-carboxamide] belongs 0.177 µM.

As for `Cn1cc(-c2cc(Oc3ccc(NC(=O)c4cn(C)c(=O)n(C)c4=O)nc3)ccn2)cn1` [Compound 40], the IC50 with Ba/F3^BCR-FMS-11 cells (72 h) is 0.046 µM.

Take `Cc1ncc(C(=O)Nc2ccc(Oc3ccnc(-c4cnn(CCN(C)C)c4)c3)cn2)c(=O)n1C` [Compound 14]: in the test with Ba/F3^BCR-FMS-11 cells (72 h), inhibition was half-maximal at 0.044 µM (IC50).
